Measured values published in PMC12775434, “Ultra-large virtual screening unveils potent agonists of the neuromodulatory orphan receptor GPR139” (Nature Communications, 2025).
Several values for one entry are separate records, joined by “and”; a condition that tells them apart may be missing. Equal values may be shown once.

Tests used:
GPR139 [1] = target: T1, GPR139 (Homo sapiens, UniProt Q6DWJ6); experiment: Ca2+ mobilization assay, agonist mode, stable GPR139-CHOk1 cell line; type: cell-based; settings: Agonist mode; individual replicates (Supplementary Figure 1)
T1 sequence (Q6DWJ6 1-353): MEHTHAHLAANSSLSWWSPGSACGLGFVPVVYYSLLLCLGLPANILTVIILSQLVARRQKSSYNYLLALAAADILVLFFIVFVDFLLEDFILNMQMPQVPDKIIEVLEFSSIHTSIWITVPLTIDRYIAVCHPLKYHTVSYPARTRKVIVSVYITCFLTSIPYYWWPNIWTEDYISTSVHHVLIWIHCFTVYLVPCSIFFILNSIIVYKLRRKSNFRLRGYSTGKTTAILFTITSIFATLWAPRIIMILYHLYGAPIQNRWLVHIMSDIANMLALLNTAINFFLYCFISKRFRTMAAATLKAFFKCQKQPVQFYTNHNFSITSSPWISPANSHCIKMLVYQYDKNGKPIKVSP
In short: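 Agonist activity of compounds is assessed in stably transfected CHO-K1 cells using the calcium dye Fluo-4 at 37 °C in HEPES-buffered HBSS (pH 7.4). Efficacy is expressed relative to the reference agonist Lundbeck Cmp 1a, set as 100%.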

GPR139 [2] = target: T1, GPR139; experiment: Ca2+ mobilization assay, antagonist mode (EC80 800 nM Lundbeck Cmp 1a after 20 min preincubation), GPR139-CHOk1; type: cell-based; settings: individual replicates (Supplementary Figure 1)
In short: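 Fluo-4-loaded GPR139-CHOk1 cells in HEPES-buffered HBSS (pH 7.4, 2.5 mM probenecid) given test compounds at 10 µM, then after 20 min challenged with 800 nM Lundbeck Cmp 1a (EC80). Calcium fluorescence read at 37 °C, 485/525 nm.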

O=C(NCc1ccc(Cl)s1)c1ccnc(-n2cncn2)c1 [Compound 64, ClC1=CC=C(CNC(=O)C=2C=CN=C(C2)N3C=NC=N3)S1]
Ca2+ signal (% of Cmp 1a) (GPR139 [1]): -4 % of Cmp 1a and -5 % of Cmp 1a and -0.942 % of Cmp 1a
Ca2+ signal (% of Cmp 1a) (GPR139 [2]): 87.3464 % of Cmp 1a and 90.999 % of Cmp 1a and 82.6211 % of Cmp 1a

Cc1noc(-c2ccc(C)c(NC(=O)CSc3nncs3)c2)n1 [Compound 65, CC1=NOC(=N1)C=2C=CC(C)=C(NC(=O)CSC3=NN=CS3)C2]
Ca2+ signal (% of Cmp 1a) (GPR139 [1]): 2.7 % of Cmp 1a and 1.38 % of Cmp 1a and -3.61 % of Cmp 1a
Ca2+ signal (% of Cmp 1a) (GPR139 [2]): 71.2308 % of Cmp 1a and 90.2803 % of Cmp 1a and 89.1818 % of Cmp 1a

O=C(CCn1cncn1)Nc1ccc(Oc2ccc(Cl)cc2)nc1 [Compound 66, ClC=1C=CC(OC=2C=CC(NC(=O)CCN3C=NC=N3)=CN2)=CC1]
Ca2+ signal (% of Cmp 1a) (GPR139 [1]): 6.43 % of Cmp 1a and -3.62 % of Cmp 1a and -6 % of Cmp 1a
Ca2+ signal (% of Cmp 1a) (GPR139 [2]): 74.4571 % of Cmp 1a and 74.7932 % of Cmp 1a and 88.8781 % of Cmp 1a

CC(C(=O)Nc1cccc(-c2nc3ccccc3n2C)c1)n1cccn1 (stereo not shown) [Compound 67, CC(C(=O)NC=1C=CC=C(C1)C2=NC=3C=CC=CC3N2C)N4C=CC=N4]
Ca2+ signal (% of Cmp 1a) (GPR139 [1]): 3.19 % of Cmp 1a and -6 % of Cmp 1a and -7 % of Cmp 1a
Ca2+ signal (% of Cmp 1a) (GPR139 [2]): 87.0817 % of Cmp 1a and 99.3874 % of Cmp 1a and 88.8295 % of Cmp 1a

Cc1ccc(-c2nc(CC(=O)NCc3ccccc3)cs2)cc1 [Compound 68, CC=1C=CC(=CC1)C2=NC(CC(=O)NCC=3C=CC=CC3)=CS2]
Ca2+ signal (% of Cmp 1a) (GPR139 [1]): -9 % of Cmp 1a and 15 % of Cmp 1a and 19 % of Cmp 1a
Ca2+ signal (% of Cmp 1a) (GPR139 [2]): 60.0488 % of Cmp 1a and 59.0311 % of Cmp 1a and 102.015 % of Cmp 1a
